From patent publication EP0617288B1, “Long emission wavelength chemiluminescent compounds and their use in test assays” (Novartis AG, priority 1993, dated 1994)

Experiments:
[1] = Light emission spectra by Fast Spectral Scanning System (FSSS); assay type: physicochemical; details: for emission spectrum peak: figure legends FIGS. 2A-2E, 3A-3J; for Emission Max: in 0.5 ml acetonitrile, Flashing Reagent #1 and #2, maximum could vary by 0-4 nm between determinations; for Range: spectral region with signal intensity of above 5% of peak height
Description: The light emission spectra of LBAC's and the reference acridinium esters were determined by a Fast Spectral Scanning System (FSSS) of Photo Research (a division of Kollmorgen Corp) of Burbank, CA, U.S.A. The experiment was carried out in a dark room. Each sample was dissolved in HPLC grade acetonitrile at the concentration of 1 mg/ml or higher and diluted with the same solvent to obtain the sample solution in the concentration specified. A typical determination utilized 10 to 100 ug of each compound, with the exception of the angular benz[a]acridinium ester (2 mg), separately or mixed together in 0.5 ml acetonitrile contained in 13 x 100 mm borosilicate test tube. The tube was placed on a tube rack raised to a proper height. The FSSS optical head was placed in front of the tube at close distance and with its lens focused on the liquid in the tube. The sample solution was first treated with 0.35 ml of the Flashing Reagent #1 (Ciba Corning Diagnostics) containing 0.1 N HNO3 and 0.1% H2O2. […] The light which was generated instantaneously following the addition of the Reagent #2 was recorded by FSSS for 4 seconds except for 2-MeO-LEAE-Imidate which was recorded for 30 seconds starting from split second before the Reagent #2 was added.
Recorded emission spectra are shown in FIGS. 2A-2E, 3A-3J, and 4A-4D. FIGS. 2A-2E and 3A-3J show individual emission spectra of chemiluminescent compounds including an acridinium ring system and compounds including a benzacridinium ring system. […] The major portions of the original constituting spectra which remained unchanged were indeed non-overlapping. These important physical characteristics fulfill the prerequisite for two or more subclasses of chemiluminescent compounds to be utilized in test assays for detecting and/or quantitating at least two substances in a test sample, and particularly to multianalyte clinical diagnostic assays.

[2] = Kinetic study on light emission (time course up to 10 seconds); assay type: physicochemical; details: normalized to 10 seconds
Description: A time course study over a period of up to 10 seconds was conducted to determine these percentages, by flashing the compounds and normalizing all the signals collected for different lengths of time to that of 10 seconds.

COc1ccc(N(C(=O)c2c3ccccc3[n+](C)c3cc4ccccc4cc23)S(=O)(=O)c2cccc(C(=O)OCc3ccccc3)c2)cc1 [LEAC-Bz, N-(4-Methoxyphenyl)-N-[3-(benzyloxycarbonyl)phenylsulfonyl] 5-Methyl-benz[b]acridinium-12-carboxamide Fluorosulfonate]
emission spectrum peak [1]: ≈ 520 nm | Emission Max [1]: 520 nm | Range [1]: 485-670 nm | Percent signal released over different lengths of time ([2]; 0.5 s): 73% | Percent signal released over different lengths of time ([2]; 1.0 s): 82% | Percent signal released over different lengths of time ([2]; 2.0 s): 93% | Percent signal released over different lengths of time ([2]; 4.0 s): 98% | Percent signal released over different lengths of time ([2]; 6.0 s): 102% | Percent signal released over different lengths of time ([2]; 10.0 s): 100%

[2,6-Dimethyl-4-(2-methoxyiminoethyl)]phenyl 2-Methoxy-5-methyl-benz[b]acridinium-12-carboxylate Dichloride [2-MeO-LEAE-Imidate]
emission spectrum peak [1]: ≈ 550 nm | Emission Max [1]: 550 nm | Range [1]: 500-710 nm | Percent signal released over different lengths of time ([2]; 0.5 s): 6% | Percent signal released over different lengths of time ([2]; 1.0 s): 23% | Percent signal released over different lengths of time ([2]; 2.0 s): 40% | Percent signal released over different lengths of time ([2]; 4.0 s): 59% | Percent signal released over different lengths of time ([2]; 6.0 s): 76% | Percent signal released over different lengths of time ([2]; 10.0 s): 100%

COc1ccc2c(C(=O)Oc3c(C)cc(C(=O)OCc4ccccc4)cc3C)c3ccccc3[n+](C)c2c1 [3-MeO-DMAE-Bz, (4-Benzyloxycarbonyl-2,6-dimethyl)phenyl 3-Methoxy-10-methyl-acridinium-9-carboxylate Fluorosulfonate, reference compound]
emission spectrum peak [1]: ≈ 422 nm | Emission Max [1]: 422 nm | Range [1]: 395-520 nm | Percent signal released over different lengths of time ([2]; 0.5 s): 26% | Percent signal released over different lengths of time ([2]; 1.0 s): 49% | Percent signal released over different lengths of time ([2]; 2.0 s): 57% | Percent signal released over different lengths of time ([2]; 4.0 s): 70% | Percent signal released over different lengths of time ([2]; 6.0 s): 80% | Percent signal released over different lengths of time ([2]; 10.0 s): 100%

CCOc1ccc2c(C(=O)Oc3c(C)cc(C(=O)OCc4ccccc4)cc3C)c3cc4ccccc4cc3[n+](C)c2c1 [3-EtO-LEAE-Bz, (4-Benzyloxycarbonyl-2,6-dimethyl)phenyl 3-Ethoxy-5-methyl-benz[b]acridinium-12-carboxylate Fluorosulfonate]
emission spectrum peak [1]: ≈ 508 nm | Emission Max [1]: 508 nm | Range [1]: 470-660 nm | Percent signal released over different lengths of time ([2]; 0.5 s): 45% | Percent signal released over different lengths of time ([2]; 1.0 s): 78% | Percent signal released over different lengths of time ([2]; 2.0 s): 85% | Percent signal released over different lengths of time ([2]; 4.0 s): 93% | Percent signal released over different lengths of time ([2]; 6.0 s): 95% | Percent signal released over different lengths of time ([2]; 10.0 s): 100%

COc1ccc2c(c1)c(C(=O)Oc1c(C)cc(C(=O)OCc3ccccc3)cc1C)c1cc3ccccc3cc1[n+]2C [2-MeO-LEAE-Bz, (4-Benzyloxycarbonyl-2,6-dimethyl)phenyl 2-Methoxy-5-methyl-benz[b]acridinium-12-carboxylate Fluorosulfonate]
emission spectrum peak [1]: ≈ 550 nm | Emission Max [1]: 550 nm | Range [1]: 510-700 nm | Percent signal released over different lengths of time ([2]; 0.5 s): 16% | Percent signal released over different lengths of time ([2]; 1.0 s): 42% | Percent signal released over different lengths of time ([2]; 2.0 s): 65% | Percent signal released over different lengths of time ([2]; 4.0 s): 83% | Percent signal released over different lengths of time ([2]; 6.0 s): 92% | Percent signal released over different lengths of time ([2]; 10.0 s): 100%

Cc1cc(C(=O)OCc2ccccc2)cc(C)c1OC(=O)c1c2ccccc2[n+](CCCS(=O)(=O)[O-])c2cc3ccccc3cc12 [NSP-LEAE-Bz, (4-Benzyloxycarbonyl-2,6-dimethyl)phenyl 5-(3-Sulfopropyl)-benz[b]acridinium-12-carboxylate]
emission spectrum peak [1]: ≈ 516 nm | Emission Max [1]: 516 nm | Range [1]: 482-655 nm | Percent signal released over different lengths of time ([2]; 0.5 s): 14% | Percent signal released over different lengths of time ([2]; 1.0 s): 72% | Percent signal released over different lengths of time ([2]; 2.0 s): 91% | Percent signal released over different lengths of time ([2]; 4.0 s): 96% | Percent signal released over different lengths of time ([2]; 6.0 s): 95% | Percent signal released over different lengths of time ([2]; 10.0 s): 100%

COc1ccc2c(c1)c(C(=O)Oc1c(C)cc(C(=O)ON3C(=O)CCC3=O)cc1C)c1cc3ccccc3cc1[n+]2CCS(=O)(=O)[O-] [2-MeO-NSE-LEAE-NHS, (2,6-Dimethyl-4-N-succinimidyloxycarbonyl)phenyl 2-Methoxy-5-(2-sulfoethyl)-benz[b]acridinium-12-carboxylate]
emission spectrum peak [1]: ≈ 546 nm | Emission Max [1]: 546 nm | Range [1]: 500-700 nm | Percent signal released over different lengths of time ([2]; 0.5 s): 22% | Percent signal released over different lengths of time ([2]; 1.0 s): 58% | Percent signal released over different lengths of time ([2]; 2.0 s): 79% | Percent signal released over different lengths of time ([2]; 4.0 s): 90% | Percent signal released over different lengths of time ([2]; 6.0 s): 96% | Percent signal released over different lengths of time ([2]; 10.0 s): 100%

(4-Benzyloxycarbonyl-2,6-diisopropyl)phenyl 10-Methyl-acridinium-9-carboxylate Fluorosulfonate [DIPAE-Bz, reference compound]
emission spectrum peak [1]: ≈ 428 nm | Emission Max [1]: 426 nm | Range [1]: 405-520 nm | Percent signal released over different lengths of time ([2]; 0.5 s): 14% | Percent signal released over different lengths of time ([2]; 1.0 s): 64% | Percent signal released over different lengths of time ([2]; 2.0 s): 89% | Percent signal released over different lengths of time ([2]; 4.0 s): 97% | Percent signal released over different lengths of time ([2]; 6.0 s): 98% | Percent signal released over different lengths of time ([2]; 10.0 s): 100%

Cc1cc(C(=O)OCc2ccccc2)cc(C)c1OC(=O)c1c2ccccc2[n+](C)c2cc3ccccc3cc12 [LEAE-Bz, (4-Benzyloxycarbonyl-2,6-dimethyl)phenyl 5-Methyl-benz[b]acridinium-12-carboxylate Fluorosulfonate]
emission spectrum peak [1]: ≈ 520 nm | Emission Max [1]: 520-524 nm | Range [1]: 490-670 nm | Percent signal released over different lengths of time ([2]; 0.5 s): 27% | Percent signal released over different lengths of time ([2]; 1.0 s): 71% | Percent signal released over different lengths of time ([2]; 2.0 s): 88% | Percent signal released over different lengths of time ([2]; 4.0 s): 97% | Percent signal released over different lengths of time ([2]; 6.0 s): 98% | Percent signal released over different lengths of time ([2]; 10.0 s): 100%

Cc1cc(C(=O)ON2C(=O)CCC2=O)cc(C)c1OC(=O)c1c2cc(OCC[N+](C)(C)C)ccc2[n+](C)c2cc3ccccc3cc12 [2-QAE-LEAE-NHS, (2,6-Dimethyl-4-succinimidyloxycarbonyl)phenyl 5-Methyl-2-(trimethylammonium)ethoxy-benz[b]acridinium-12-carboxylate Difluorosulfonate]
emission spectrum peak [1]: ≈ 550 nm | Emission Max [1]: 550 nm | Range [1]: 510-700 nm | Percent signal released over different lengths of time ([2]; 0.5 s): 9% | Percent signal released over different lengths of time ([2]; 1.0 s): 37% | Percent signal released over different lengths of time ([2]; 2.0 s): 59% | Percent signal released over different lengths of time ([2]; 4.0 s): 76% | Percent signal released over different lengths of time ([2]; 6.0 s): 88% | Percent signal released over different lengths of time ([2]; 10.0 s): 100%
